Test results as given in ChEMBL document CHEMBL1201862, “PubChem BioAssay data set” (2004).
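Cells were grown in 96-well plates and exposed to each compound for 48 hours at five concentrations; endpoints were interpolated linearly between bracketing concentrations, or set to the highest concentration if not reached. GI50: concentration for 50% inhibition of growth.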 Activity calls are given as the source filed them. Rule as the data show it: active = GI50 up to about 1.1 µM and inactive = higher.

How the values were obtained:
Experiment in all cases: growth of human tumour cells (NCI), 48 h
Hs-578T = tested on: Hs-578T
OVCAR-3 = tested on: OVCAR-3
T47D = tested on: T47D
BT-549 = tested on: BT-549
OVCAR-4 = tested on: OVCAR-4
SK-MEL-5 = tested on: SK-MEL-5
CAKI-1 = tested on: CAKI-1
COLO 205 = tested on: COLO 205
OVCAR-8 = tested on: OVCAR-8
MDA-MB-435 = tested on: MDA-MB-435
EKVX = tested on: EKVX
K562 = tested on: K562
RXF 393 = tested on: RXF 393
SK-MEL-2 = tested on: SK-MEL-2
A549 = tested on: A549
SN12C = tested on: SN12C
TK-10 = tested on: TK-10
MDA-MB-231 = tested on: MDA-MB-231
786-0 = tested on: 786-0
Malme-3M = tested on: Malme-3M

Compound	GI50 (Hs-578T)	GI50 (OVCAR-3)	GI50 (T47D)	GI50 (BT-549)	GI50 (OVCAR-4)	GI50 (SK-MEL-5)	GI50 (CAKI-1)	GI50 (COLO 205)	GI50 (OVCAR-8)	GI50 (MDA-MB-435)	GI50 (EKVX)	GI50 (K562)	GI50 (RXF 393)	GI50 (SK-MEL-2)	GI50 (A549)	GI50 (SN12C)	GI50 (TK-10)	GI50 (MDA-MB-231)	GI50 (786-0)	GI50 (Malme-3M)
O=C(O)/C=C\C(=O)Nc1ccc2c(c1)-c1ccccc1C2	44.5 µM (inactive)	30.8 µM (inactive)	88.1 µM (inactive)	39.8 µM (inactive)	> 100 µM (inactive)	> 100 µM (inactive)	> 100 µM (inactive)	> 100 µM (inactive)	77.4 µM (inactive)	> 100 µM (inactive)	87.9 µM (inactive)	64.9 µM (inactive)	> 100 µM (inactive)	38.5 µM (inactive)	> 100 µM (inactive)	> 100 µM (inactive)	> 100 µM (inactive)	> 100 µM (inactive)	91.4 µM (inactive)	63.7 µM (inactive)
OCc1cn(Cc2ccccc2)c2ccccc12	12.9 µM (inactive)	0.232 µM (active)	< 0.0411 µM (active)	6.59 µM (inactive)	0.0378 µM (active)	25.7 µM (inactive)	< 0.0461 µM (active)	0.444 µM (active)	13 µM (inactive)	> 51.9 µM (inactive)	> 73.1 µM (inactive)	4.48 µM (inactive)	< 0.0316 µM (active)	2.56 µM (inactive)	9.02 µM (inactive)	26 µM (inactive)	< 0.0359 µM (active)	19.5 µM (inactive)	10.7 µM (inactive)	5.46 µM (inactive)
O=C(O)C1CC(C2CCCCN2)CN2CCCCC12 (stereo not given)	> 100 µM (inactive)	> 100 µM (inactive)	> 100 µM (inactive)	> 100 µM (inactive)	> 100 µM (inactive)	> 100 µM (inactive)	> 100 µM (inactive)	> 100 µM (inactive)	> 100 µM (inactive)	> 100 µM (inactive)	> 100 µM (inactive)	> 100 µM (inactive)	> 100 µM (inactive)	> 100 µM (inactive)	> 100 µM (inactive)	> 100 µM (inactive)	> 100 µM (inactive)	> 100 µM (inactive)	> 100 µM (inactive)	> 100 µM (inactive)
O=C(CSc1n[nH]c(=O)[nH]c1=O)NNC(=O)c1cccc2nc3ccccc3nc12	40.4 µM (inactive)	> 100 µM (inactive)	> 100 µM (inactive)	29.2 µM (inactive)	> 100 µM (inactive)	22 µM (inactive)	> 100 µM (inactive)	31.8 µM (inactive)	> 100 µM (inactive)	35.4 µM (inactive)	> 100 µM (inactive)	> 100 µM (inactive)	> 100 µM (inactive)	> 100 µM (inactive)	39.4 µM (inactive)	94.8 µM (inactive)	> 100 µM (inactive)	> 100 µM (inactive)	> 100 µM (inactive)	26.5 µM (inactive)
C=C(Br)C/N=C/N(C)C	> 100 µM (inactive)	> 100 µM (inactive)	> 100 µM (inactive)	> 100 µM (inactive)	> 100 µM (inactive)	> 100 µM (inactive)	> 100 µM (inactive)	> 100 µM (inactive)	> 100 µM (inactive)	> 100 µM (inactive)	> 100 µM (inactive)	> 100 µM (inactive)	> 100 µM (inactive)	> 100 µM (inactive)	> 100 µM (inactive)	> 100 µM (inactive)	> 100 µM (inactive)	> 100 µM (inactive)	> 100 µM (inactive)	> 100 µM (inactive)
O=S(=O)(Nc1ccccc1S(=O)(=O)c1ccccc1)c1ccccc1	51.9 µM (inactive)	65.6 µM (inactive)	59.3 µM (inactive)	63.1 µM (inactive)	51.3 µM (inactive)	58.6 µM (inactive)	> 100 µM (inactive)	38.1 µM (inactive)	68.5 µM (inactive)	> 100 µM (inactive)	29.4 µM (inactive)	61.5 µM (inactive)	> 100 µM (inactive)	64.3 µM (inactive)	67.1 µM (inactive)	> 100 µM (inactive)	> 100 µM (inactive)	> 100 µM (inactive)	> 100 µM (inactive)	69.5 µM (inactive)
N#Cc1ncc(C(Cl)Cl)nc1Cl	4.66 µM (inactive)	2.12 µM (inactive)	1.76 µM (inactive)	1.84 µM (inactive)	1.85 µM (inactive)	1.75 µM (inactive)	1.4 µM (inactive)	1.77 µM (inactive)	2.15 µM (inactive)	1.76 µM (inactive)	1.75 µM (inactive)	1.33 µM (inactive)	1.75 µM (inactive)	1.91 µM (inactive)	3.24 µM (inactive)	1.74 µM (inactive)	2.35 µM (inactive)	1.74 µM (inactive)	1.76 µM (inactive)	2.43 µM (inactive)
O=C1NCC(CSc2nc3cc(C4CCCc5c4[nH]c4ccccc54)ccc3o2)N1 (stereo not given)	38.1 µM (inactive)	44.1 µM (inactive)	25.8 µM (inactive)	47.1 µM (inactive)	32.2 µM (inactive)	28.5 µM (inactive)	41.5 µM (inactive)	61.4 µM (inactive)	30.8 µM (inactive)	30.9 µM (inactive)	25.6 µM (inactive)	31.5 µM (inactive)	26.5 µM (inactive)	39.3 µM (inactive)	22.5 µM (inactive)	49.7 µM (inactive)	72.4 µM (inactive)	23.1 µM (inactive)	43.3 µM (inactive)	53.7 µM (inactive)
CCOC(=O)c1[nH]cc(C)c1-c1c[nH]c2ccccc12	16.7 µM (inactive)	26.7 µM (inactive)	36.3 µM (inactive)	26.5 µM (inactive)	41.5 µM (inactive)	13.8 µM (inactive)	37.1 µM (inactive)	15.4 µM (inactive)	27.1 µM (inactive)	26 µM (inactive)	> 63.8 µM (inactive)	6.04 µM (inactive)	30.1 µM (inactive)	29.4 µM (inactive)	28.8 µM (inactive)	56 µM (inactive)	19.5 µM (inactive)	9.57 µM (inactive)	34.9 µM (inactive)	42.7 µM (inactive)
O=C1CS(=O)(=O)C(c2cccc(Oc3ccccc3)c2)N1c1ccc(Cl)cc1 (stereo not given)	30.1 µM (inactive)	24.2 µM (inactive)	10.9 µM (inactive)	24.7 µM (inactive)	22.8 µM (inactive)	12.3 µM (inactive)	15.6 µM (inactive)	17.7 µM (inactive)	18.8 µM (inactive)	17.1 µM (inactive)	11.5 µM (inactive)	14.5 µM (inactive)	18.6 µM (inactive)	15.2 µM (inactive)	30.8 µM (inactive)	22.1 µM (inactive)	22.6 µM (inactive)	31.4 µM (inactive)	16.5 µM (inactive)	25.4 µM (inactive)
c1ccc2c(-c3cnc(-c4c[nH]c5ccccc45)cn3)c[nH]c2c1	57.8 µM (inactive)	27.2 µM (inactive)	66.5 µM (inactive)	> 100 µM (inactive)	> 100 µM (inactive)	50.1 µM (inactive)	74.8 µM (inactive)	34.4 µM (inactive)	39.4 µM (inactive)	24.9 µM (inactive)	73.6 µM (inactive)	18.8 µM (inactive)	26.7 µM (inactive)	70.3 µM (inactive)	> 100 µM (inactive)	31.4 µM (inactive)	47.1 µM (inactive)	91 µM (inactive)	38.1 µM (inactive)	38.9 µM (inactive)
Cc1nc2c(=O)[nH]c3ccc(Cl)cc3c2o1	> 100 µM (inactive)	> 100 µM (inactive)	> 100 µM (inactive)	> 100 µM (inactive)	> 100 µM (inactive)	> 100 µM (inactive)	> 100 µM (inactive)	> 100 µM (inactive)	> 100 µM (inactive)	> 100 µM (inactive)	69.7 µM (inactive)	> 100 µM (inactive)	> 100 µM (inactive)	> 100 µM (inactive)	> 100 µM (inactive)	> 100 µM (inactive)	> 100 µM (inactive)	> 100 µM (inactive)	> 100 µM (inactive)	> 100 µM (inactive)
CN1CCN([C@H]2C[C@H]3[C@@H]4CC=C5C[C@@H](O)CC[C@]5(C)[C@H]4CC[C@]3(C)C2=O)CC1	> 100 µM (inactive)	> 100 µM (inactive)	> 100 µM (inactive)	> 100 µM (inactive)	> 100 µM (inactive)	> 100 µM (inactive)	> 100 µM (inactive)	> 100 µM (inactive)	> 100 µM (inactive)	> 100 µM (inactive)	> 100 µM (inactive)	34.3 µM (inactive)	> 100 µM (inactive)	> 100 µM (inactive)	> 100 µM (inactive)	> 100 µM (inactive)	> 100 µM (inactive)	> 100 µM (inactive)	> 100 µM (inactive)	> 100 µM (inactive)
O=C1Nc2ccc(S(=O)(=O)O)cc2/C1=N/Nc1ccccc1[N+](=O)[O-]	> 100 µM (inactive)	> 100 µM (inactive)	> 100 µM (inactive)	> 100 µM (inactive)	> 100 µM (inactive)	> 100 µM (inactive)	> 100 µM (inactive)	> 100 µM (inactive)	> 100 µM (inactive)	> 100 µM (inactive)	> 100 µM (inactive)	5.64 µM (inactive)	> 100 µM (inactive)	> 100 µM (inactive)	> 100 µM (inactive)	> 100 µM (inactive)	> 100 µM (inactive)	> 100 µM (inactive)	> 100 µM (inactive)	> 100 µM (inactive)
